pIC50: −log10 of the molar value.
How the values were obtained:
L6 = assay: Cytotoxicity against L6 cells; format: cell-based; conditions: Rattus norvegicus
Plasmodium falciparum [1] = assay: Antiparasitic activity against chloroquine-sensitive Plasmodium falciparum NF54 in erythrocytes by [3H]hypoxanthine uptake; format: functional, organism-based
Plasmodium falciparum [2] = assay: Antiparasitic activity against chloroquine, pyrimethamine-resistant Plasmodium falciparum K1 in erythrocytes by [3H]hypoxanthine uptake; format: functional, organism-based
Plasmodium falciparum [3] = assay: Relative activity against Plasmodium falciparum NF54 and K1 as IC50 ratio; format: functional

SMILES | pIC50 (L6) | pIC50 (Plasmodium falciparum [1]) | pIC50 (Plasmodium falciparum [2]) | Ratio IC50 (Plasmodium falciparum [3])
O=C(CCCOc1ccccc1)NCCCN1CCN(CCCNc2ccnc3cc(Cl)ccc23)CC1 | 5.03 | 7.92 | 7.14 | 0.16
CCOc1ccc(C(=O)NCCCN2CCN(CCCNc3ccnc4cc(Cl)ccc34)CC2)cc1 | 5.28 | 8.10 | 7.92 | 0.67
O=C(CCCc1ccccc1)NCCCN1CCN(CCCNc2ccnc3cc(Cl)ccc23)CC1 | 4.96 | 7.77 | 7.21 | 0.28
O=C(NCCCN1CCN(CCCNc2ccnc3cc(Cl)ccc23)CC1)c1cc(F)cc(F)c1 | 4.94 | 8.00 | 7.59 | 0.39
Cc1ccccc1C(=O)NCCCN1CCN(CCCNc2ccnc3cc(Cl)ccc23)CC1 |  | 8.00 | 7.47 | 0.29
COc1cccc(C(=O)NCCCN2CCN(CCCNc3ccnc4cc(Cl)ccc34)CC2)c1 | 5.03 | 8.00 | 7.55 | 0.36
O=C(CCCC1CCCCC1)NCCCN1CCN(CCCNc2ccnc3cc(Cl)ccc23)CC1 |  | 6.81 | 6.57 | 0.57
O=C(CCCCc1ccccc1)NCCCN1CCN(CCCNc2ccnc3cc(Cl)ccc23)CC1 | 5.03 | 7.92 | 7.27 | 0.22
O=C(NCCCN1CCN(CCCNc2ccnc3cc(Cl)ccc23)CC1)c1ccc(Cl)c([N+](=O)[O-])c1 | 4.95 | 7.70 | 7.37 | 0.47
O=C(NCCCN1CCN(CCCNc2ccnc3cc(Cl)ccc23)CC1)c1ccc(Oc2ccccc2)cc1 | 5.85 | 8.05 | 7.82 | 0.6
O=C(NCCCN1CCN(CCCNc2ccnc3cc(Cl)ccc23)CC1)c1cccc(OC(F)(F)F)c1 | 5.07 | 7.92 | 7.82 | 0.8
CC(C)CC(=O)NCCCN1CCN(CCCNc2ccnc3cc(Cl)ccc23)CC1 |  | 7.89 | 7.11 | 0.17
CCCCCC(=O)NCCCN1CCN(CCCNc2ccnc3cc(Cl)ccc23)CC1 |  | 6.47 | 6.05 | 0.38
O=C(NCCCN1CCN(CCCNc2ccnc3cc(Cl)ccc23)CC1)c1cccc(C(F)(F)F)c1 | 4.52 | 7.43 | 7.28 | 0.68
O=C(NCCCN1CCN(CCCNc2ccnc3cc(Cl)ccc23)CC1)C(c1ccccc1)c1ccccc1 | 5.03 | 7.60 | 6.97 | 0.24
COc1ccc(C(=O)NCCCN2CCN(CCCNc3ccnc4cc(Cl)ccc34)CC2)cc1OC |  | 7.44 | 6.35 | 0.08
O=C(CCCc1c[nH]c2ccccc12)NCCCN1CCN(CCCNc2ccnc3cc(Cl)ccc23)CC1 | 5.19 | 7.82 | 7.16 | 0.22
CC(=O)CCC(=O)NCCCN1CCN(CCCNc2ccnc3cc(Cl)ccc23)CC1 | 4.96 | 7.23 | 6.42 | 0.15
O=C(Cc1ccc(Cl)cc1Cl)NCCCN1CCN(CCCNc2ccnc3cc(Cl)ccc23)CC1 | 4.82 | 8.10 | 7.62 | 0.34
O=C(NCCCN1CCN(CCCNc2ccnc3cc(Cl)ccc23)CC1)c1ccccc1C(=O)c1ccccc1 | 5.49 | 8.00 | 7.77 | 0.59
CC(C)=CC(=O)NCCCN1CCN(CCCNc2ccnc3cc(Cl)ccc23)CC1 | 4.52 | 7.64 | 7.19 | 0.36
O=C(Cc1cccc2ccccc12)NCCCN1CCN(CCCNc2ccnc3cc(Cl)ccc23)CC1 | 5.21 | 7.89 | 7.39 | 0.32
O=C(NCCCN1CCN(CCCNc2ccnc3cc(Cl)ccc23)CC1)c1ccc(F)c(F)c1 | 5.00 | 8.15 | 7.89 | 0.54
O=C(Cc1c(Cl)cccc1Cl)NCCCN1CCN(CCCNc2ccnc3cc(Cl)ccc23)CC1 | 5.28 | 7.96 | 7.44 | 0.32
NC(=O)c1ccc(C(=O)NCCCN2CCN(CCCNc3ccnc4cc(Cl)ccc34)CC2)cc1 |  | 7.08 | 6.60 | 0.33
O=C(CC1CCCCC1)NCCCN1CCN(CCCNc2ccnc3cc(Cl)ccc23)CC1 | 5.14 | 8.00 | 7.57 | 0.37
O=C(NCCCN1CCN(CCCNc2ccnc3cc(Cl)ccc23)CC1)c1cc(Cl)cc(Cl)c1 | 5.52 | 8.15 | 7.92 | 0.58
O=C(NCCCN1CCN(CCCNc2ccnc3cc(Cl)ccc23)CC1)c1ccc(C(=O)c2ccccc2)cc1 |  | 5.81 | 5.51 | 0.5
CCc1ccc(C(=O)NCCCN2CCN(CCCNc3ccnc4cc(Cl)ccc34)CC2)cc1 | 5.41 | 8.10 | 7.89 | 0.62
CCN(CC)CCCC(C)Nc1ccnc2cc(Cl)ccc12 (stereo not given) [CHLOROQUINE] | 5.11 |  |  | 
